Data published in patent publication US8802439B2, “Methods for enhancing infectivity of retroviruses” (priority 2009, dated 2014).
“Also recorded” adds a separate entry of the source.

Test system: HCV
Test: HCV infectivity titer of supernatants from persistently infected HUH-7 cells
Assay type: cell-based
Settings: PiB 16 μM and 8 μM, 1 hour pre-treatment plus 9 hours at 37° C.
Procedure: (§1) Cells persistently infected with HCV were treated with vehicle (DMSO), an MTP inhibitor (BMS-200150) capable of inhibiting HCV secretion, or with two doses of PiB (16 μM and 8 μM). After 1 hour of pre-treatment at 37° C., cells were washed with warm PBS and further incubated in normal medium containing the same drugs for an additional 9 hours at 37° C. Cell supernatants containing infectious HCV were collected for infectivity titer determination.
as §1, with “Infection assays for HCV: Persistently” for “Cells persistently”, “cells” for “with HCV”, “inhibitors” for “drugs”, “determination. […] Note that Pin1 is able to block HIV-1 in the HUH-7 cell line used to propagate HCV.” for “determination.”
Persistently infected HUH-7 cells were treated with solvent DMSO (circles), or increasing concentrations of PiB (squares). After 1 hour of pre-treatment cells were washed and further incubated in normal medium containing the same inhibitors for an additional 9 hours at 37° C. Cell supernatants containing infectious HCV were collected for infectivity titer determination.

In the case of `CCOC(=O)CN1C(=O)c2ccc3c4c(ccc(c24)C1=O)C(=O)N(CC(=O)OCC)C3=O` [PiB, diethyl-1,3,6,8-tetrahydro-1,3,6,8-tetraoxobenzo[lmn][3,8]phenanthroline-2,7-diacetate], the “infectious HCV in cell supernatants (infectivity titer)” value is reported as “does not enhance HCV infectivity; also recorded: does not enhance replication”.
